These results are taken from US11596639B2, “Substituted indole Mcl-1 inhibitors” (Vanderbilt University, priority 2016, dated 2023).

pKi: −log10 of the molar value.

Chain of Mcl-1 (Q07820 172-327): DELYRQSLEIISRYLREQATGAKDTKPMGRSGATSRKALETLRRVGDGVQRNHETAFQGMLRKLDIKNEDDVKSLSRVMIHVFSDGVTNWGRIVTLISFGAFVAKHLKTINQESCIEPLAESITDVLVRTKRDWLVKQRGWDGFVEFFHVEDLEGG

The first assay has as its target Mcl-1 (Homo sapiens (Human), UniProt Q07820). Put plainly: Fluorescence polarization anisotropy (FPA) competition assay, FITC-Bak or FITC-Bim BH3 peptide. In kind it is binding. The note with it: read-out: Ki for Inhibition of Mcl-1 by FPA assay. In general terms: Fluorescence polarisation rises when a labelled molecule tumbles more slowly, as on binding a larger partner.
On to `Cc1cc(OCCCc2c3n(c4c(-c5c(C)ncnc5C)c(C)ccc24)[C@H](C)CN(c2cccc4cc(C(=O)O)n(Cc5ccccn5)c24)C3=O)cc(C)c1Cl` (atropisomer, axis not shown) [Example 271, (R)-7-(10-(3-(4-chloro-3,5-dimethylphenoxy)propyl)-6-(4,6-dimethylpyrimidin-5-yl)-4,7-dimethyl-1-oxo-3,4-dihydropyrazino[1,2-a]indol-2(1H)-yl)-1-(pyridin-2-ylmethyl)-1H-indole-2-carboxylic acid], for which the pKi was above 9.00. Same read-out and setting: under `COC(=O)c1ccc2c(c1)c(N1C[C@@H](C)n3c(c(CCCOc4cc(C)c(Cl)c(C)c4)c4ccc(Cl)c(-c5c(C)nn(C)c5C)c43)C1=O)cn2C` (single isomer, unassigned) [Example 204] stands 8.96. Same read-out and setting: with `COC(=O)c1ccc2c(c1)c(N1C[C@@H](C)n3c(c(CCCOc4cc(C)c(Cl)c(C)c4)c4ccc(Cl)c(-c5c(C)nn(C)c5C)c43)C1=O)cn2C` (single isomer, unassigned) [Example 207] the figure was above 9.00; with `Cc1cc(OCCCc2c3n(c4c(-c5c(C)nn(C)c5C)c(Cl)ccc24)[C@H](C)CN(c2cn(C)c4ccc(-c5nnc(C6CCCCC6)o5)cc24)C3=O)cc(C)c1Cl` [Example 413, (R)-7-Chloro-10-(3-(4-chloro-3,5-dimethylphenoxy)propyl)-2-(5-(5-cyclohexyl-1,3,4-oxadiazol-2-yl)-1-methyl-1H-indol-3-yl)-4-methyl-6-(1,3,5-trimethyl-1H-pyrazol-4-yl)-3,4-dihydropyrazino[1,2-a]indol-1(2H)-one], 8.46; with `Cc1cc(OCCCc2c3n(c4c(-c5c(C)nn(C)c5C)c(Cl)ccc24)[C@H](C)CN(c2cn(C)c4ccc(-c5nnc(-c6ccccc6)o5)cc24)C3=O)cc(C)c1Cl` [Example 421, (R)-7-chloro-10-(3-(4-chloro-3,5-dimethylphenoxy)propyl)-4-methyl-2-(1-methyl-5-(5-phenyl-1,3,4-oxadiazol-2-yl)-1H-indol-3-yl)-6-(1,3,5-trimethyl-1H-pyrazol-4-yl)-3,4-dihydropyrazino[1,2-a]indol-1(2H)-one], 8.47.

Take `Cc1cc(OCCCc2c3n(c4c(-c5c(C)nn(C)c5C)c(Cl)ccc24)[C@H](C)CN(c2ccc(F)c4cc[nH]c24)C3=O)cc(C)c1Cl` [Example 446, (R)-7-Chloro-10-(3-(4-chloro-3,5-dimethylphenoxy)propyl)-2-(4-fluoro-1H-indol-7-yl)-4-methyl-6-(1,3,5-trimethyl-1H-pyrazol-4-yl)-3,4-dihydropyrazino[1,2-a]indol-1(2H)-one]: the pKi is 8.09. Still for that read-out and setting: under `Cc1cc(OCCCc2c3n(c4c(-c5c(C)nn(C)c5C)c(Cl)ccc24)[C@H](C)CN(c2cnc4ccc(C(=O)O)cn24)C3=O)cc(C)c1Cl` [Example 473, (R)-3-(7-chloro-10-(3-(4-chloro-3,5-dimethylphenoxy)propyl)-4-methyl-1-oxo-6-(1,3,5-trimethyl-1H-pyrazol-4-yl)-3,4-dihydropyrazino[1,2-a]indol-2(1H)-yl)imidazo[1,2-a]pyridine-6-carboxylic acid] stands 8.39; under `Cc1cc(OCCCc2c(C(=O)N(C)c3cccc(C(=O)O)c3)n(CCN3CCOCC3)c3c(-c4c(C)nn(C)c4C)c(Cl)ccc23)cc(C)c1Cl` [Example 730, 3-[[6-chloro-3-[3-(4-chloro-3,5-dimethyl-phenoxy)propyl]-1-(2-morpholinoethyl)-7-(1,3,5-trimethylpyrazol-4-yl)indole-2-carbonyl]-methyl-amino]benzoic acid], 7.70.

In the case of `Cc1cc(OCCCc2c(C(=O)N(C)c3ccc(C(=O)O)cc3)n(CCN3CCOCC3)c3c(-c4c(C)nn(C)c4C)c(Cl)ccc23)cc(C)c1Cl` [Example 731, 4-[[6-Chloro-3-[3-(4-chloro-3,5-dimethyl-phenoxy)propyl]-1-(2-morpholinoethyl)-7-(1,3,5-trimethylpyrazol-4-yl)indole-2-carbonyl]-methyl-amino]benzoic acid], the pKi is below 6.70. Same read-out and setting: with `Cc1cc(OCCCc2c(C(=O)N3CCN(c4cccc(C(=O)O)c4)CC3)[nH]c3c(-c4c(C)nn(C)c4C)c(Cl)ccc23)cc(C)c1Cl` [Example 732, 3-(4-(6-chloro-3-(3-(4-chloro-3,5-dimethylphenoxy)propyl)-7-(1,3,5-trimethyl-1H-pyrazol-4-yl)-1H-indole-2-carbonyl)piperazin-1-yl)benzoic acid] the figure was 7.42; with `Cc1cc(OCCCc2c(C(=O)N3CCN(c4cncc(C(=O)O)c4)CC3)n(Cc3cccnc3)c3c(-c4c(C)nn(C)c4C)c(Cl)ccc23)cc(C)c1Cl` [Example 734, 5-(4-(6-chloro-3-(3-(4-chloro-3,5-dimethylphenoxy)propyl)-1-(pyridin-3-ylmethyl)-7-(1,3,5-trimethyl-1H-pyrazol-4-yl)-1H-indole-2-carbonyl)piperazin-1-yl)nicotinic acid], below 6.70; with `Cc1cc(OCCCc2c(C(=O)N3CCN(c4cccc(C(=O)O)c4)CC3)n(Cc3cccnc3)c3c(-c4c(C)nn(C)c4C)c(Cl)ccc23)cc(C)c1Cl` [Example 735, 3-(4-(6-chloro-3-(3-(4-chloro-3,5-dimethylphenoxy)propyl)-1-(pyridin-3-ylmethyl)-7-(1,3,5-trimethyl-1H-pyrazol-4-yl)-1H-indole-2-carbonyl)piperazin-1-yl)benzoic acid], 7.28.

Consider `Cc1cc(CCCCc2c(C(=O)N3CCN(c4ccc(C(=O)O)nc4)CC3)n(Cc3cccnc3)c3c(-c4c(C)nn(C)c4C)c(Cl)ccc23)cc(C)c1Cl` [Example 737, 5-(4-(6-Chloro-3-(4-(4-chloro-3,5-dimethylphenyl)butyl)-1-(pyridin-3-ylmethyl)-7-(1,3,5-trimethyl-1H-pyrazol-4-yl)-1H-indole-2-carbonyl)piperazin-1-yl)picolinic acid], for which the pKi was 6.85.

Turning to `Cc1cc(CCCCc2c(C(=O)N3CCN(c4ccnc(C(=O)O)c4)CC3)[nH]c3c(-c4c(C)nn(C)c4C)c(Cl)ccc23)cc(C)c1Cl` [Example 738, 4-(4-(6-Chloro-3-(4-(4-chloro-3,5-dimethylphenyl)butyl)-7-(1,3,5-trimethyl-1H-pyrazol-4-yl)-1H-indole-2-carbonyl)piperazin-1-yl)picolinic acid], the pKi was 6.70. Still for that read-out and setting: with `Cc1cc(CCCCc2c(C(=O)N3CCN(c4ccccc4C(=O)O)CC3)n(Cc3cccnc3)c3c(-c4c(C)nn(C)c4C)c(Cl)ccc23)cc(C)c1Cl` [Example 739, 2-(4-(6-Chloro-3-(4-(4-chloro-3,5-dimethylphenyl)butyl)-1-(pyridin-3-ylmethyl)-7-(1,3,5-trimethyl-1H-pyrazol-4-yl)-1H-indole-2-carbonyl)piperazin-1-yl)benzoic acid] the figure was 7.14. On the same count and under the same terms, with `Cc1cc(CCCCc2c(C(=O)N3CCN(c4cncc(C(=O)O)c4)CC3)[nH]c3c(-c4c(C)nn(C)c4C)c(Cl)ccc23)cc(C)c1Cl` [Example 740, 5-(4-(6-Chloro-3-(4-(4-chloro-3,5-dimethylphenyl)butyl)-7-(1,3,5-trimethyl-1H-pyrazol-4-yl)-1H-indole-2-carbonyl)piperazin-1-yl)nicotinic acid] the figure was 7.07; with `Cc1cc(CCCCc2c(C(=O)N3CCN(c4cc(C(=O)O)ccn4)CC3)n(Cc3cccnc3)c3c(-c4c(C)nn(C)c4C)c(Cl)ccc23)cc(C)c1Cl` [Example 741, 2-(4-(6-Chloro-3-(4-(4-chloro-3,5-dimethylphenyl)butyl)-1-(pyridin-3-ylmethyl)-7-(1,3,5-trimethyl-1H-pyrazol-4-yl)-1H-indole-2-carbonyl)piperazin-1-yl)isonicotinic acid], below 6.70.

For the molecule `Cc1cc(CCCCc2c(C(=O)N3CCN(c4ccnc(C(=O)O)c4)CC3)n(Cc3cccnc3)c3c(-c4c(C)nn(C)c4C)c(Cl)ccc23)cc(C)c1Cl` [Example 742, 4-(4-(6-Chloro-3-(4-(4-chloro-3,5-dimethylphenyl)butyl)-1-(pyridin-3-ylmethyl)-7-(1,3,5-trimethyl-1H-pyrazol-4-yl)-1H-indole-2-carbonyl)piperazin-1-yl)picolinic acid], the pKi was below 6.70. The same measure, in the same setting: under `Cc1cc(CCCCc2c(C(=O)N3CCN(c4ccccc4C(=O)O)CC3)[nH]c3c(-c4c(C)nn(C)c4C)c(Cl)ccc23)cc(C)c1Cl` [Example 744, 2-(4-(6-Chloro-3-(4-(4-chloro-3,5-dimethylphenyl)butyl)-7-(1,3,5-trimethyl-1H-pyrazol-4-yl)-1H-indole-2-carbonyl)piperazin-1-yl)benzoic acid] stands 7.52; under `Cc1cc(OCCCc2c(C(=O)N3CCC(C(=O)O)C3)[nH]c3c(-c4c(C)ncnc4C)c(Cl)ccc23)cc(C)c1Cl` (stereo not drawn) [Example 745, 1-[6-Chloro-3-[3-(4-chloro-3,5-dimethyl-phenoxy)propyl]-7-(4,6-dimethylpyrimidin-5-yl)-1H-indole-2-carbonyl]pyrrolidine-3-carboxylic acid], 7.36. Regarding `Cc1cc(OCCCc2c(C(=O)NCc3cccc(C(=O)O)c3)[nH]c3c(-c4c(C)ncnc4C)c(Cl)ccc23)cc(C)c1Cl` [Example 748, 3-[[[6-Chloro-3-[3-(4-chloro-3,5-dimethyl-phenoxy)propyl]-7-(4,6-dimethylpyrimidin-5-yl)-1H-indole-2-carbonyl]amino]methyl]benzoic acid], the pKi is 8.20.

The next assay deals with H929 human cancer cell lines. Put plainly: Cellular viability / proliferation (Cell TiterGlo, 72 h). The class given is cell-based. The note with it: Homo sapiens, NCI-H929, 72 h, read-out: GI50 on cellular proliferation of H929 human cancer cell lines, H929 cells, 72 h, Cell TiterGlo, 10% FBS. How it is done:
Cellular Viability of Human Tumor Cell Lines
To evaluate compound effect on cellular proliferation, cells were plated at 1,000 cells/well in 96-well tissue culture plates in a total volume of 90 μL medium supplemented with 10% FBS (Sigma, Saint Louis, Mo.). 24 hours later, 10 μL of compound (in a 2-fold serial dilution) is added to the cells for a top concentration of 50 μM and a final DMSO concentration <1%. After 72 hours, 50 μL of Cell TiterGlo (Promega, Madison, Wis., USA) reagent is added to each well and plates are incubated at room temperature, in the dark, for 30 minutes. Luminescence is measured on a BioTek Cytation 3. Luminescence values are imported into a template in XLFit (Guildford, Surrey, UK) that uses a four-parameter fit to generate an IC50 value for each compound dilution series on the plate.
Background: Cellular ATP, detected with luciferase, serves as a proxy for viable cell number.
For `Cc1cc(OCCCc2c3n(c4c(-c5c(C)ncnc5C)c(C)ccc24)[C@H](C)CN(c2cccc4cc(C(=O)O)n(Cc5ccccn5)c24)C3=O)cc(C)c1Cl` (atropisomer, axis not shown) [Example 271, (R)-7-(10-(3-(4-chloro-3,5-dimethylphenoxy)propyl)-6-(4,6-dimethylpyrimidin-5-yl)-4,7-dimethyl-1-oxo-3,4-dihydropyrazino[1,2-a]indol-2(1H)-yl)-1-(pyridin-2-ylmethyl)-1H-indole-2-carboxylic acid], the GI50 stood at 260 nM. Same read-out and setting: with `COC(=O)c1ccc2c(c1)c(N1C[C@@H](C)n3c(c(CCCOc4cc(C)c(Cl)c(C)c4)c4ccc(Cl)c(-c5c(C)nn(C)c5C)c43)C1=O)cn2C` (single isomer, unassigned) [Example 204] the figure was 1000 nM.

Staying with this assay, now noted: read-out: GI50 on cellular proliferation of H929 human cancer cell lines; H929 cells, 72 h, Cell TiterGlo, 10% FBS.
Take `COC(=O)c1ccc2c(c1)c(N1C[C@@H](C)n3c(c(CCCOc4cc(C)c(Cl)c(C)c4)c4ccc(Cl)c(-c5c(C)nn(C)c5C)c43)C1=O)cn2C` (single isomer, unassigned) [Example 207]: the GI50 turned out to be 750 nM.

Usually pKi stands for the negative decadic logarithm of the Ki, by convention in mol/L.
